Results published in patent US12172990B2 (Constellation Pharmaceuticals, Inc., priority 2018, dated 2024).

Experiments:
full length human TREX1 = full length human TREX1 (Homo sapiens (Human), UniProt Q9NSU2); assay: TREX1 Biochemical Assay (fluorescence assay measuring degradation of dsDNA substrate); conditions: 150 pM TREX1, 60 nM dsDNA substrate, 25 minutes at room temperature
Summary of the method: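 His-Tev-tagged full-length human TREX1 expressed in E. coli, 150 pM final, with 60 nM TEX615/quencher-labelled 9-mer dsDNA in Tris pH 7.4, NaCl, DTT, BSA, Tween-20, MgCl2 and 1.0% DMSO; 25 min at room temperature, EDTA-quenched. Fluorescence 615 nm (excitation 570 nm); 10-point IC50 by four-parameter fit against pre-quenched and no-inhibitor controls.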

[1] = target: human TREX2 (residues M44-A279) (Homo sapiens (Human), UniProt Q9BQ50); assay: TREX2 Biochemical Assay (fluorescence assay measuring degradation of dsDNA substrate); conditions: 2.5 nM TREX2, 60 nM dsDNA substrate, 25 minutes at room temperature
Summary of the method: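 Final conditions: 2.5 nM His-Tev-tagged TREX2 (E. coli-expressed), 60 nM fluorophore/quencher-labelled dsDNA, 50 mM Tris pH 7.4, 150 mM NaCl, 100 mM MgCl2, 1% DMSO; 10-point compound dose-response. Incubated 25 min at room temperature, then EDTA-quenched; fluorescence read at ex 570/em 615 nm. IC50 from four-parameter fit against pre-quenched and no-inhibitor controls.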

Chain of full length human TREX1 (Q9NSU2 whole entry): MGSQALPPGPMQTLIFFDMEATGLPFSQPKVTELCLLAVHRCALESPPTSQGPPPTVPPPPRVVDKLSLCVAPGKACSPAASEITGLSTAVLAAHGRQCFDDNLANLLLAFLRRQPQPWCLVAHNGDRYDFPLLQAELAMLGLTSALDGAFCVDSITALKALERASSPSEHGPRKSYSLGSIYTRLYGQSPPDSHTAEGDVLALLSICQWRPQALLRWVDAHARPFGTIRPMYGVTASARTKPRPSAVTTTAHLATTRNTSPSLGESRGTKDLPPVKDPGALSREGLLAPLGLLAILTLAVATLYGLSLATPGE
Chain of human TREX2 (residues M44-A279) (Q9BQ50 whole entry, the tested form may be a part): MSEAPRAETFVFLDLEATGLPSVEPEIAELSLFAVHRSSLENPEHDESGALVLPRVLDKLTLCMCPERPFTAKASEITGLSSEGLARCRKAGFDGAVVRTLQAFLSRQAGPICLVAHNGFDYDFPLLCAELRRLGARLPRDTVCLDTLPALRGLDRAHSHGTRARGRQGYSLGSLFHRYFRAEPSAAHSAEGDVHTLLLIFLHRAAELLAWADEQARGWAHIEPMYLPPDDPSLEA

Compound | IC50 (full length human TREX1) | IC50 [1]
Cn1c(N2CCC[C@@H]2c2cccnc2)nc(C(=O)Nc2cnoc2)c(O)c1=O [Example 102, (R)-5-hydroxy-N-(isoxazol-4-yl)-1-methyl-6-oxo-2-(2-(pyridin-3-yl)pyrrolidin-1-yl)-1,6-dihydropyrimidine-4-carboxamide] | 0.1 to 1 µM | 10 to 100 µM
Cn1c(N2CCC[C@H]2c2ccncc2)nc(C(=O)Nc2cnoc2)c(O)c1=O [Example 103, (S)-5-hydroxy-N-(isoxazol-4-yl)-1-methyl-6-oxo-2-(2-(pyridin-4-yl)pyrrolidin-1-yl)-1,6-dihydropyrimidine-4-carboxamide] | 0.1 to 1 µM | 10 to 100 µM
Cn1c([C@H]2CCCCN2CCO)nc(C(=O)Nc2cnoc2)c(O)c1=O [Example 104, (R)-5-hydroxy-2-(1-(2-hydroxyethyl)piperidin-2-yl)-N-(isoxazol-4-yl)-1-methyl-6-oxo-1,6-dihydropyrimidine-4-carboxamide] | 1 to 10 µM | > 100 µM
Cn1c(N2CCCC[C@H]2CCO)nc(C(=O)Nc2cnoc2)c(O)c1=O [Example 106, (S)-5-hydroxy-2-(2-(2-hydroxyethyl)piperidin-1-yl)-N-(isoxazol-4-yl)-1-methyl-6-oxo-1,6-dihydropyrimidine-4-carboxamide] | 0.1 to 1 µM | 10 to 100 µM
CN(C)C(=O)[C@H]1CCCN1c1nc(C(=O)Nc2cnoc2)c(O)c(=O)n1C [Example 110, (R)-2-(2-(dimethylcarbamoyl)pyrrolidin-1-yl)-5-hydroxy-N-(isoxazol-4-yl)-1-methyl-6-oxo-1,6-dihydropyrimidine-4-carboxamide] | 0.1 to 1 µM | 10 to 100 µM
CC(=O)N1CCCN(c2nc(C(=O)Nc3cnoc3)c(O)c(=O)n2C)CC1 [Example 111, 2-(4-acetyl-1,4-diazepan-1-yl)-5-hydroxy-N-(isoxazol-4-yl)-1-methyl-6-oxo-1,6-dihydropyrimidine-4-carboxamide] | 0.1 to 1 µM | 10 to 100 µM
CC(=O)N1CCN(c2nc(C(=O)Nc3cnoc3)c(O)c(=O)n2C)CC1 [Example 116, 2-(4-acetylpiperazin-1-yl)-5-hydroxy-N-(isoxazol-4-yl)-1-methyl-6-oxo-1,6-dihydropyrimidine-4-carboxamide] | 0.1 to 1 µM | 10 to 100 µM
Cn1c(N2CC[C@H](C(N)=O)C2)nc(C(=O)Nc2cnoc2)c(O)c1=O [Example 117, (S)-2-(3-carbamoylpyrrolidin-1-yl)-5-hydroxy-N-(isoxazol-4-yl)-1-methyl-6-oxo-1,6-dihydropyrimidine-4-carboxamide] | 0.1 to 1 µM | 10 to 100 µM
Cn1c(N2CCC[C@H](C(N)=O)C2)nc(C(=O)Nc2cnoc2)c(O)c1=O [Example 119, (S)-2-(3-carbamoylpiperidin-1-yl)-5-hydroxy-N-(isoxazol-4-yl)-1-methyl-6-oxo-1,6-dihydropyrimidine-4-carboxamide] | 0.1 to 1 µM | 10 to 100 µM
Cn1c(N2CC(Oc3ccccc3)C2)nc(C(=O)Nc2cnoc2)c(O)c1=O [Example 122, 5-hydroxy-N-(isoxazol-4-yl)-1-methyl-6-oxo-2-(3-phenoxyazetidin-1-yl)-1,6-dihydropyrimidine-4-carboxamide] | 0.1 to 1 µM | 10 to 100 µM
Cn1c(N2CC(OCc3ccccc3)C2)nc(C(=O)Nc2cnoc2)c(O)c1=O [Example 123, 2-(3-(benzyloxy)azetidin-1-yl)-5-hydroxy-N-(isoxazol-4-yl)-1-methyl-6-oxo-1,6-dihydropyrimidine-4-carboxamide] | 0.1 to 1 µM | 10 to 100 µM

Next, values leading:

IC50 (full length human TREX1) | IC50 [1] | Compound
< 0.1 µM | < 1 µM | Cn1c([C@H]2CCCN(C(=O)c3ccc(Cl)c(Cl)c3)C2)nc(C(=O)Nc2cnoc2)c(O)c1=O [Example 97, (S)-2-(1-(3,4-dichlorobenzoyl)piperidin-3-yl)-5-hydroxy-N-(isoxazol-4-yl)-1-methyl-6-oxo-1,6-dihydropyrimidine-4-carboxamide]
0.1 to 1 µM | 10 to 100 µM | Cn1c(C2CCCN(CC(F)(F)F)C2)nc(C(=O)Nc2cnoc2)c(O)c1=O (stereo not shown) [Example 98, 5-hydroxy-N-(isoxazol-4-yl)-1-methyl-6-oxo-2-(1-(2,2,2-trifluoroethyl)piperidin-3-yl)-1,6-dihydropyrimidine-4-carboxamide]
0.1 to 1 µM | 10 to 100 µM | Cn1c(N2CCN(C(=O)c3ccccc3)CC2)nc(C(=O)Nc2cnoc2)c(O)c1=O [Example 100, 2-(4-benzoylpiperazin-1-yl)-5-hydroxy-N-(isoxazol-4-yl)-1-methyl-6-oxo-1,6-dihydropyrimidine-4-carboxamide]
0.1 to 1 µM | 10 to 100 µM | Cn1c(N2CCC[C@H](c3ccccn3)C2)nc(C(=O)Nc2cnoc2)c(O)c1=O [Example 101, (S)-5-hydroxy-N-(isoxazol-4-yl)-1-methyl-6-oxo-2-(3-(pyridin-2-yl)piperidin-1-yl)-1,6-dihydropyrimidine-4-carboxamide]
< 0.1 µM | 1 to 10 µM | Cn1c(N2CCCC[C@@H]2CCO)nc(C(=O)Nc2cnoc2)c(O)c1=O [Example 107, (R)-5-hydroxy-2-(2-(2-hydroxyethyl)piperidin-1-yl)-N-(isoxazol-4-yl)-1-methyl-6-oxo-1,6-dihydropyrimidine-4-carboxamide]
< 0.1 µM | 10 to 100 µM | Cn1c(N2CC[C@H](c3ccccc3)C2)nc(C(=O)Nc2cnoc2)c(O)c1=O [Example 108, (R)-5-hydroxy-N-(isoxazol-4-yl)-1-methyl-6-oxo-2-(3-phenylpyrrolidin-1-yl)-1,6-dihydropyrimidine-4-carboxamide]
< 0.1 µM | 10 to 100 µM | Cn1c(N2CC[C@@H](c3ccccc3)C2)nc(C(=O)Nc2cnoc2)c(O)c1=O [Example 109, (S)-5-hydroxy-N-(isoxazol-4-yl)-1-methyl-6-oxo-2-(3-phenylpyrrolidin-1-yl)-1,6-dihydropyrimidine-4-carboxamide]
< 0.1 µM | 1 to 10 µM | Cn1c(N2CCC[C@H]2c2ccccc2)nc(C(=O)Nc2cnoc2)c(O)c1=O [Example 112, (S)-5-hydroxy-N-(isoxazol-4-yl)-1-methyl-6-oxo-2-(2-phenylpyrrolidin-1-yl)-1,6-dihydropyrimidine-4-carboxamide]
< 0.1 µM | 1 to 10 µM | Cn1c(N2CCC[C@@H]2c2ccccc2)nc(C(=O)Nc2cnoc2)c(O)c1=O [Example 113, (R)-5-hydroxy-N-(isoxazol-4-yl)-1-methyl-6-oxo-2-(2-phenylpyrrolidin-1-yl)-1,6-dihydropyrimidine-4-carboxamide]
< 0.1 µM | 10 to 100 µM | Cn1c(N2CC[C@@H](C(N)=O)C2)nc(C(=O)Nc2cnoc2)c(O)c1=O [Example 118, (R)-2-(3-carbamoylpyrrolidin-1-yl)-5-hydroxy-N-(isoxazol-4-yl)-1-methyl-6-oxo-1,6-dihydropyrimidine-4-carboxamide]
< 0.1 µM | 1 to 10 µM | Cn1c(Oc2ccccc2)nc(C(=O)Nc2cnoc2)c(O)c1=O [Example 120, 5-hydroxy-N-(isoxazol-4-yl)-1-methyl-6-oxo-2-phenoxy-1,6-dihydropyrimidine-4-carboxamide]
< 0.1 µM | 1 to 10 µM | Cn1c(OC2CCCCC2)nc(C(=O)Nc2cnoc2)c(O)c1=O [Example 121, 2-(cyclohexyloxy)-5-hydroxy-N-(isoxazol-4-yl)-1-methyl-6-oxo-1,6-dihydropyrimidine-4-carboxamide]
